Read-outs that look alike come from different tables or passages of the source.

Assay [1] concerns SARS-CoV-2 Omicron BA.5. Nature of the assay: Antiviral activity (CPE inhibition) in Vero E6 cells, Omicron BA.5. It counts as cell-based. Particulars: read-out: EC50 against Omicron BA.5 variant.
Assay [2] has as its system SARS-CoV-2 Omicron EG.5. Nature of the assay: Antiviral activity (CPE inhibition) in Vero E6 cells, Omicron EG.5. Type of assay: cell-based. Particulars: read-out: EC50 against Omicron EG.5 variant.
The mark [3] stands for this setting: Severe acute respiratory syndrome coronavirus 2, Vero C1008, 48 h.

In general, EC50 refers to the concentration at which the effect is half-maximal. Consider `O=C(OC[C@H]1O[C@@H](OC(=O)c2cc(O)c(O)c(O)c2)[C@H](OC(=O)c2cc(O)c(O)c(O)c2)[C@@H](OC(=O)c2cc(O)c(O)c(O)c2)[C@@H]1O)c1cc(O)c(O)c(O)c1` [TGG, 1,2,3,6-tetra-O-galloyl-β-D-glucose], for which the EC50 in assay [1] (setting [3]) is 25.7 µM; in assay [2] (setting [3]), 37.3 µM.
As to `Cn1cnc(Cn2c(=O)[nH]/c(=N\c3cc4cn(C)nc4cc3Cl)n(Cc3cc(F)c(F)cc3F)c2=O)n1` [S-217622, reference compound], the EC50 in assay [1] was determined as 0.09 µM; in assay [2] it was 0.06 µM.
In the case of `O=C(OC[C@H]1O[C@@H](OC(=O)c2cc(O)c(O)c(O)c2)[C@H](OC(=O)c2cc(O)c(O)c(O)c2)[C@@H](OC(=O)c2cc(O)c(O)c(O)c2)[C@@H]1OC(=O)c1cc(O)c(O)c(O)c1)c1cc(O)c(O)c(O)c1` [PGG, 1,2,3,4,6-penta-O-galloyl-β-D-glucose], the EC50 in assay [1] (setting [3]) came out at 3.2 µM; in assay [2] (setting [3]), 15.4 µM.

The values are drawn from PMC11689655, “High-throughput screening of dual-target inhibitors for SARS-CoV-2 main protease and papain-like protease from Chebulae Fructus: in silico prediction and experimental verification” (Frontiers in Microbiology, 2024).
